Experimental data: patent US20020076401A1, “Heat shock protein inducing factor and method for its in-situ generation from an inactive form” (priority 2000, published 2002)
Where a SMILES comes first, the peptide text is derived from it. The star is where a group is joined. Cbz = O=C(OCc1ccccc1)*

Columns and labels:
[1] = system: HSP-inducing factor in blood serum and ascites fluid; assay: In-vitro activation of HSP-inducing factor by sodium periodate; type: cell-based, mouse
Procedure: To activate HSP-inducing factor, 200 mM solution of sodium periodate in physicological saline (solutions of sodium periodate in water or in 50 mM sodium acetate pH 5.0 work equally well) was added to aliquots of serum or of ascites fluid to final concentration of 1 mM to 20 mM (at these concentrations and in conditions outlined below, sodium periodate oxidizes only sugar groups). Mixtures were incubated at room temperature in darkness for 1 hour. Following the incubation sodium periodate was quenched by the addition of solution of potassium borohydride in physiological saline to a final concentration equal to 1.5 times excess of the concentration of sodium periodate. The completeness of quenching was verified by using potassium iodide-starch test paper.
(§1) Aliquots of serum, treated as described above, were added to cultures of CH1 cells and cultures of primary human fibroblasts at 20% of final volume. Cultures were incubated for 16 hours at regular tissue culture conditions (37° C., 5% CO2). Following the incubation, cells were collected, washed, and lysed. Lysates were subjected to polyacrylamide gel electrophoresis (PAGE), transferred to nitrocellulose membrane (Awestem transfer≅), and Hsp70 was detected by immunoblotting with Hsp70-specific monoclonal antibody (Spa810) and visualized by ECL technique.

[2] = system: HSP-inducing factor in serum; assay: In-vivo activation of HSP-inducing factor by single injection of periodate; set-up: species or system mice
Procedure: as §1
Mice were injected with either intraperitoneally (IP) or subcutaneously (SQ) with 0.2 ml of sodium periodate solution in physiological saline, or with 0.2 ml of physiological saline alone.
Four different concentrations of sodium periodate were used: 15 mM, 30 mM, 60 mM, and 120 mM. In parallel experiments the same concentrations of periodate but prequenched with potassium borohydride as described above were injected. After 2 hours blood samples were collected from tail and serum was used in the assay described above.

[3] = system: Hsp70-inducing activity in serum; assay: Periodate treatment of serum from differently stressed mice; type: cell-based; conditions: in vitro periodate treatment
[4] = system: HSP-inducing factor in serum; assay: In-vivo activation of HSP-inducing factor by prolonged release of periodate; set-up: species or system mouse; conditions: 500 mM released over 72 hours, SQ pump; detected after 3 hours and maintained
Procedure: In another type of experiment […] of either 500 mM solution of sodium periodate in physiological saline or physiological saline alone were released over a period of 72 hours using microosmotic pumps implanted SQ. In parallel experiments the same concentration of periodate but prequenched with potassium borohydride as described above was administered. After different time periods blood samples were collected from tail and serum was used in the assay described above.

[5] = system: Hsp72 expression in old cells; conditions: cited from earlier work

| SMILES | levels of active factor versus periodate concentration ([1]; assessed by Hsp70 in cell lysates) | activation of HSP-inducing factor ([1]; blood serum and ascites fluid, 1 mM to 20 mM, 1 hour, room temperature) | Hsp70 in cell lysate relative to cells incubated with untreated serum ([1]; maximal sodium periodate concentration, serum at 20%, 16 hours) | levels of HSP in cell lysates relative to cells incubated with untreated serum ([2]; maximal sodium periodate concentration, single injection) | levels of HSP-inducing factor in serum ([2]; mice, IP or SQ 0.2 ml of 15-120 mM, 2 hours) | levels of HSP-inducing factor versus periodate concentration ([2]; mice, single injection) | Hsp70-inducing activity of serum from differently stressed mice after periodate treatment [3] | levels of HSP-inducing factor in serum [4] | toxicity [5] | Hsp72 synthesis ([5]; old cells) |
| --- | --- | --- | --- | --- | --- | --- | --- | --- | --- | --- |
| [O-][I+3]([O-])([O-])O [sodium periodate] | directly proportional to concentrations of sodium periodate used | strongly activated | at least 50 times | about 10 times | substantially increased levels of HSP-inducing factor | directly proportional to the concentrations of periodate used | further increased in all samples to a level identical to that seen in periodate-activated serum from non-stressed mice | Substantially increased levels of HSP-inducing factor |  |  |
| CC(C)C[C@@H](C=O)NC(=O)[C@H](CC(C)C)NC(=O)[C@H](CC(C)C)NC(=O)OCc1ccccc1 [MG132] (Cbz-Leu-Leu-Leu-aldehyde) |  |  |  |  |  |  |  |  | highly toxic | induces Hsp72 synthesis via an alternative heat shock transcription factor HSF2 |
